Measured values published in US20130142868A1 (priority 2010, published 2013).
Like-named read-outs stand apart in the source and are kept apart here.

Tests used:
[1] = test system: A549 human lung cancer cells; test: Alamar Blue cell viability assay, A549; type: cell-based; settings: 72 h, 3 days incubation
Experimental: HUVEC, LLC-PK1, and A549 lung cancer cells were purchased from ATCC. LLC-PK1 cells were cultured in DMEM supplemented with 10% FBS and antibiotics (100 U/mL penicillin G and 0.1 mg/mL streptomycin). HUVEC cells were cultured in F12-K media supplemented with 100 ug/ml endothelial cell growth supplement (BD Biosciences, Franklin Lakes, N.J.), 10% FBS, and antibiotics. A549 human lung cancer cells were cultured in F12-K media with 10% FBS and antibiotics. All cells were grown at 37° C. in a 5% CO2/95% air humidified atmosphere.
Cell viability experiments were performed using the Alamar Blue dye reduction assay (Invitrogen, Carlsbad, Calif.). The experimental cell lines were plated at 1.0×10^4 cells/well in 96-well plates in recommended media and allowed to adhere overnight. The next day, cells were incubated with liposomes or free CCNU, with drug concentrations from 2.5 to 100 μM. Cells were also incubated with empty RGD-expressed and non-targeted liposomes. The control cells were only incubated in the recommended media. All experiments were performed in quadruplicate. Incubations were allowed to carry out for 3 days. […] Next, the wells were analyzed with a fluorescence plate reader with absorption and emission of 485/535 nm. All cell viability results are expressed as a percentage of viable cells compared to control cells.

[2] = rat, in vivo
[3] = in vivo; cited from earlier work
rats = settings: rat, in vivo

With `O=NN(CCCl)C(=O)NC1CCCCC1` [Free Drug, 1-(2-chloroethyl)-3-cyclohexyl-1-nitroso-urea] the IC50 ([1]; after aerosolization, read-out: IC50 values, post-aerosolization) was 70.5 ± 2.97 µM and the IC50 ([1]; before aerosolization, read-out: IC50 values, pre-aerosolization) was 68.7 ± 2.48 µM.
In the case of `OC[C@@H](O)[C@@H](O)[C@H](O)[C@H](O)CO` [mannitol], the “concentration at olfactory bulbs” value ([2]; Sprague-Dawley, 30 min) is reported as “about 2 nmol/g”, the “concentration in the brain's cortex, brain stem and spine” value ([2]; Sprague-Dawley, 30 min) is reported as 0.2 to 0.4 nmol/g and the “cortex concentration, increase POD compared to IV” value ([2]; Sprague-Dawley, 30 min) is reported as 8.69 fold. For the same compound, the “cortex concentration, increase POD compared to nose drops” value ([2]; Sprague-Dawley, 30 min) was 11.6 fold, the “olfactory bulb concentration, increase POD compared to IV” value ([2]; Sprague-Dawley, 30 min) was 53.1 fold and the “olfactory bulb concentration, increase POD compared to nose drops” value ([2]; Sprague-Dawley, 30 min) was 25.6 fold. For the same compound, the “olfactory bulb concentration, increase POD compared to IV” value ([2]; Sprague-Dawley, 150 min) was 40.0 fold, the “olfactory bulb concentration, increase POD compared to nose drops” value ([2]; Sprague-Dawley, 150 min) was 22.1 fold and the “concentration in the brain's cortex, brain stem and spine” value ([2]; Sprague-Dawley, iv, 30 min) was “less than 0.02 nmol/g”. For the same compound, the “blood normalized olfactory bulb concentration, POD compared to nose drops” value ([2]; 30 min) was 18.6 fold, the “brain-to-blood ratio (average of all brain tissues), increase POD compared to nose drops” value ([2]; 30 min) was 3.4 fold and the half life [3] was 1.67 h.
In the case of `CN1CC[C@]23c4c5ccc(O)c4O[C@H]2[C@@H](O)C=C[C@H]3[C@H]1C5` [morphine], the “DTP % after POD administration” value (rats) is reported as 38-55% and the “DTP % after nose drops, depending on the dose” value (rats) is reported as 0-10%.
With `Cc1c(O)cccc1C(=O)N[C@@H](CSc1ccccc1)[C@H](O)CN1C[C@H]2CCCC[C@H]2C[C@H]1C(=O)NC(C)(C)C` [nelfinavir] the “blood concentration, nose drop administration relative to POD administration” value ([2]; Sprague-Dawley, 30 min) was 3.2 times higher, the “cortex concentration, increase POD compared to nose drops” value ([2]; Sprague-Dawley, 30 min) was 4.05 fold and the “olfactory bulb concentration, increase POD compared to nose drops” value ([2]; Sprague-Dawley, 30 min) was 1.91 fold. The “blood normalized olfactory bulb concentration, POD compared to nose drops” value ([2]; 30 min) was 3.6 fold, the “brain-to-blood ratio (average of all brain tissues), increase POD compared to nose drops” value ([2]; 30 min) was 2.1 fold and the “cortex concentration, increase POD compared to nose drops” value ([2]; 30 min) was 4.0 fold. The “olfactory bulb concentration, increase POD compared to nose drops” value ([2]; 30 min) was 1.4 fold.
